Here are results for 26 compounds from patent publication US8420676B2, “Oxazolidinone derivatives” (Dong-A Pharmaceuticals Co. Ltd., priority 2003, dated 2013).

Values after ≈ are worked out from the molar mass of the structure shown. Counter-ions that a name gives are not always drawn. Some results are limits rather than exact numbers.

Series [1] can be described thus: Assay for solubility in distilled water (turbidity by naked eye). It is filed as physicochemical. The following applies: average of three runs; for solubility at 2 min: thermodynamic from solid. Here is the method: The derivatives of the present invention were added to 200 μl of distilled water and then the solution was stirred for 2 minutes. The turbidity of the solution was watched through naked eye.
When the derivatives were not dissolved completely, 50 μl of distilled water was added to the solution and then the turbidity of the solution was assayed in the above manner to find a point of becoming transparent solution.
When 2 mg of the derivatives was first added to distilled water and completely dissolved so that the solution became transparent, 2 mg of the derivatives was added more to the solution and then state of the solution was watched. The derivatives of the present invention were added to the five times and then solubility of the solution was assayed for. The assay for solubility was carried out the three times repeatedly in the above method and the results were averaged.

For series [2], the system named is methicillin resistant Staphylococcus aureus (MRSA). As to the kind of experiment: Assay for in vitro antibacterial activity, agar dilution (MRSA). The note with it: read-out: Minimum Inhibitory Concentration (MIC50) MRSA.
In series [3] the test system is vancomycin resistant Enterococci (VRE). As to the kind of experiment: Assay for in vitro antibacterial activity, agar dilution (VRE). The following applies: Enterococcus, read-out: Minimum Inhibitory Concentration (MIC50) VRE. A general note: In agar dilution the substance is mixed into plates at graded concentrations.

What is called solubility is the concentration that dissolves in the medium under given conditions. The low end stands for a poorly soluble substance, the high end for a readily soluble substance. In general, Solubility refers to how much of the substance goes into solution per volume.

Compound `Cc1nnc(-c2ccc(-c3ccc(N4C[C@H](COC(=O)[C@@H](N)C(C)C)OC4=O)cc3F)cn2)o1` [Compound 53, (R)-3-(4-(2-(2-methyl-[1,3,4]oxadiazol-5-yl)pyridin-5-yl)-3-fluorophenyl)-5-(L-valyloxy)methyl oxazolidin-2-one trifluoroacetic acid] gave a solubility at 2 min in series [1] of 30.3 mg/mL (≈ 64500 µM). For `Cn1nnc(-c2ccc(-c3ccc(N4C[C@H](COC(=O)CCN)OC4=O)cc3F)cn2)n1` [Compound 49, (R)-3-(4-(2-(2-methyltetrazol-5-yl)pyridin-5-yl)-3-fluorophenyl)-5-(β-alanyloxy)methyl oxazolidin-2-one trifluoroacetic acid], the MIC50 in series [2] is 0.5 µg/mL (≈ 1.13 µM); in series [3] it was 0.25 µg/mL (≈ 0.566 µM). Besides, the Solubility in series [1] (trifluoroacetic acid) was found to be 2.6 mg/mL (≈ 5890 µM). Turning to `Cc1nnc(-c2ccc(-c3ccc(N4C[C@H](COC(=O)[C@@H](N)C(C)C)OC4=O)cc3F)cn2)o1.Cl` [Compound 54, (R)-3-(4-(2-(2-methyl-[1,3,4]oxadiazol-5-yl)pyridin-5-yl)-3-fluorophenyl)-5-(L-valyloxy)methyl oxazolidin-2-one hydrochloride], the figures for the MIC50 in series [2] and in series [3] were 0.5 µg/mL and 1 µg/mL, respectively. Also, the solubility at 2 min in series [1] came out at 2.9 mg/mL.

In the case of `Cc1nnc(-c2ccc(-c3ccc(N4C[C@H](COC(=O)[C@@H]5CCCN5)OC4=O)cc3F)cn2)o1.Cl` [Compound 56, (R)-3-(4-(2-(2-methyl-[1,3,4]oxadiazol-5-yl)pyridin-5-yl)-3-fluorophenyl)-5-(L-prolinyloxy)methyl oxazolidin-2-one hydrochloride], the MIC50 in series [2] was found to be 0.5 µg/mL; in series [3], 1 µg/mL. The same compound gave a solubility at 2 min in series [1] of over 50 mg/mL.

Regarding `Cn1nnnc1-c1ccc(-c2ccc(N3C[C@H](COC(=O)CCN)OC3=O)cc2F)cn1` [Compound 68, (R)-3-(4-(2-(1-methyltetrazol-5-yl)pyridin-5-yl)-3-fluorophenyl)-5-(β-alanyloxy)methyl oxazolidin-2-one trifluoroacetic acid], in series [1], the solubility at 2 min is 2.6 mg/mL (≈ 5890 µM). `C[C@H](N)C(=O)OC[C@H]1CN(c2ccc(-c3ccc(-c4nnn(C)n4)nc3)c(F)c2)C(=O)O1` [Compound 42, (R)-3-(4-(2-(2-methyltetrazol-5-yl)pyridin-5-yl)-3-fluorophenyl)-5-(L-alanyloxy)methyl oxazolidin-2-one trifluoroacetic acid]: the Solubility in series [1] (listed as compound 42, trifluoroacetic acid) is over 50 mg/mL; in series [1] (trifluoroacetic acid), over 50 mg/mL. With `Cn1nnnc1-c1ccc(-c2ccc(N3C[C@H](COC(=O)CN)OC3=O)cc2F)cn1` [Compound 62, (R)-3-(4-(2-(1-methyltetrazol-5-yl)pyridin-5-yl)-3-fluorophenyl)-5-glycyloxymethyl oxazolidin-2-one trifluoroacetic acid], the solubility at 2 min in series [1] is 28 mg/mL (≈ 65500 µM). On the same count and under the same terms, then `Cc1nnc(-c2ccc(-c3ccc(N4C[C@H](COC(=O)[C@@H]5CCCN5)OC4=O)cc3F)cn2)o1` [Compound 55, (R)-3-(4-(2-(2-methyl-[1,3,4]oxadiazol-5-yl)pyridin-5-yl)-3-fluorophenyl)-5-(L-prolinyloxy)methyl oxazolidin-2-one trifluoroacetic acid], with 7.2 mg/mL (≈ 15400 µM). Same read-out and setting: then `Cn1nnc(-c2ccc(-c3ccc(N4C[C@H](COC(=O)[C@@H]5CCCN5)OC4=O)cc3F)cn2)n1` [Compound 46, (R)-3-(4-(2-(2-methyltetrazol-5-yl)pyridin-5-yl)-3-fluorophenyl)-5-(L-prolinyloxy)methyl oxazolidin-2-one trifluoroacetic acid], with under 1.63 mg/mL; and `Cc1nnc(-c2ccc(-c3ccc(N4C[C@H](COC(=O)[C@H](C)N)OC4=O)cc3F)cn2)o1` [Compound 51, (R)-3-(4-(2-(2-methyl-[1,3,4]oxadiazol-5-yl)pyridin-5-yl)-3-fluorophenyl)-5-(L-alanyloxy)methyl oxazolidin-2-one trifluoroacetic acid], with over 50 mg/mL; and `Cc1nnc(-c2ccc(-c3ccc(N4C[C@H](COC(=O)CCN)OC4=O)cc3F)cn2)o1` [Compound 57, (R)-3-(4-(2-(2-methyl-[1,3,4]oxadiazol-5-yl)pyridin-5-yl)-3-fluorophenyl)-5-(β-alanyloxy)methyl oxazolidin-2-one trifluoroacetic acid], with over 50 mg/mL.

As for `C[C@H](N)C(=O)OC[C@H]1CN(c2ccc(-c3ccc(-c4nnnn4C)nc3)c(F)c2)C(=O)O1` [Compound 64, (R)-3-(4-(2-(1-methyltetrazol-5-yl)pyridin-5-yl)-3-fluorophenyl)-5-(L-alanyloxy)methyl oxazolidin-2-one trifluoroacetic acid], in series [1], the solubility at 2 min is over 50 mg/mL. In series [1] (hydrochloride), `Cn1nnc(-c2ccc(-c3ccc(N4C[C@H](COC(=O)CCN)OC4=O)cc3F)cn2)n1` [Compound 50, (R)-3-(4-(2-(2-methyltetrazol-5-yl)pyridin-5-yl)-3-fluorophenyl)-5-(β-alanyloxy)methyl oxazolidin-2-one hydrochloride] gave a Solubility of 20.4 mg/mL. For the compound `Cn1nnc(-c2ccc(-c3ccc(N4C[C@H](Cn5cncn5)OC4=O)cc3F)cn2)n1` [Compound 4, (R)-3-(4-(2-(2-methyltetrazol-5-yl)pyridin-5-yl)-3-fluorophenyl)-5-([1,2,4]triazol-1-yl)methyl oxazolidin-2-one], the MIC50 in series [2] and in series [3] was 2 µg/mL (≈ 4.75 µM) throughout.

Consider `CC(=O)NC[C@H]1CN(c2ccc(-c3ccc(C4=NC(CO)CO4)cc3)c(F)c2)C(=O)O1` (stereo partly drawn) [Compound 26, (S)-3-(4-(4-(4(S)-hydroxymethyl-4,5-dihydroxazole-2-yl)phenyl)-3-fluorophenyl)-2-oxo-5-oxazolidinylmethyl acetamide], for which the MIC50 in series [2] and in series [3] was 0.5 µg/mL (≈ 1.17 µM) in each case. In the case of `Cc1nc(-c2ccc(-c3ccc(N4C[C@H](CO)OC4=O)cc3F)cc2)oc1C` [Compound 21, (R)-3-(4-(4-(4,5-dimethyloxazol-2-yl)phenyl)-3-fluorophenyl)-5-hydroxymethyl oxazolidin-2-one], the MIC50 in series [2] and in series [3] was 1 µg/mL (≈ 2.62 µM) in each case. With `C[C@H](N)C(=O)OC[C@H]1CN(c2ccc(-c3ccc(-c4nnnn4C)nc3)c(F)c2)C(=O)O1.Cl` [Compound 65, (R)-3-(4-(2-(1-methyltetrazol-5-yl)pyridin-5-yl)-3-fluorophenyl)-5-(L-alanyloxy)methyl oxazolidin-2-one hydrochloride], the MIC50 came out at 0.5 µg/mL in series [2] and 0.25 µg/mL in series [3]. Taken in the same sequence, the figures for `Cl.Cn1nnnc1-c1ccc(-c2ccc(N3C[C@H](COC(=O)CCN)OC3=O)cc2F)cn1` [Compound 69, (R)-3-(4-(2-(1-methyltetrazol-5-yl)pyridin-5-yl)-3-fluorophenyl)-5-(β-alanyloxy)methyl oxazolidin-2-one hydrochloride] were 0.5 µg/mL and 0.25 µg/mL. As for `NCC(=O)OCc1csc(-c2ccc(-c3ccc(N4C[C@H](Cn5ccnn5)OC4=O)cc3F)cc2)n1` [Compound 37, (R)-3-(4-(4-(4-glycyloxymethylthiazol-2-yl)phenyl)-3-fluorophenyl)-5-([1,2,3]triazol-1-yl)methyl oxazolidin-2-one trifluoroacetic acid], the MIC50 in series [2] and in series [3] was 0.5 µg/mL (≈ 0.983 µM) in each case. For `CC(=O)NC[C@H]1CN(c2ccc(-c3ccc(-c4nc(COC(=O)CN)cs4)cc3)c(F)c2)C(=O)O1` [Compound 30, (S)-3-(4-(4-(4-glycyloxymethylthiazol-2-yl)phenyl)-3-fluorophenyl)-2-oxo-5-oxazolidinylmethyl acetamide trifluoroacetic acid], the MIC50 in series [2] and in series [3] was 0.5 µg/mL (≈ 1 µM) in each case.

In the case of `CN(C)CC1CN(c2ccc(-c3ccc(-c4nnn(C)n4)nc3)c(F)c2)C(=O)O1` (stereo in doubt) [Compound 40, (R)-3-(4-(2-(2-methyltetrazol-5-yl)pyridin-5-yl)-3-fluorophenyl)-5-(N,N-dimethylaminomethyl)oxazolidin-2-one], the results for the MIC50 in series [2] and in series [3] were 4 µg/mL (≈ 10.1 µM) and 8 µg/mL (≈ 20.1 µM), respectively. On to `CC(C)[C@H](N)C(=O)OC[C@H]1CN(c2ccc(-c3ccc(-c4nnnn4C)nc3)c(F)c2)C(=O)O1` [Compound 66, (R)-3-(4-(2-(1-methyltetrazol-5-yl)pyridin-5-yl)-3-fluorophenyl)-5-(L-valyloxy)methyl oxazolidin-2-one trifluoroacetic acid], for which the concentration in solution in series [1] (solubility at 2 min) was 4.7 mg/mL (≈ 10000 µM). `CC(=O)NC[C@H]1CN(c2ccc(-c3ccc(-n4cc(COC(=O)CN)nn4)nc3)c(F)c2)C(=O)O1` [Compound 2, (S)-3-(4-(2-(4-glycyloxymethyl-1,2,3-triazol-1-yl)pyridin-5-yl)-3-fluorophenyl)-2-oxo-5-oxazolidinylmethyl acetamide trifluoroacetic acid]: the MIC50 in series [2] is 0.5 µg/mL (≈ 1.03 µM); in series [3], 0.125 µg/mL (≈ 0.259 µM). `CC(=O)NC[C@H]1CN(c2ccc(-c3ccc(-c4nc(C)c(C)o4)nc3)c(F)c2)C(=O)O1` [Compound 15]: the MIC50 in series [2] and in series [3] was 1 µg/mL (≈ 2.36 µM) throughout. `CC(=O)NC[C@H]1CN(c2ccc(-c3ccc(-c4nc(C)c(C)o4)cc3)c(F)c2)C(=O)O1` [Compound 11, (S)-3-(4-(4-(4,5-dimethyloxazol-2-yl)phenyl)-3-fluorophenyl)-2-oxo-5-oxazolidinylmethyl acetamide]: the MIC50 in series [2] turned out to be 0.5 µg/mL (≈ 1.18 µM); in series [3], 0.25 µg/mL (≈ 0.59 µM).

As for `Cl.Cn1nnnc1-c1ccc(-c2ccc(N3C[C@H](COC(=O)CN)OC3=O)cc2F)cn1` [Compound 63, (R)-3-(4-(2-(1-methyltetrazol-5-yl)pyridin-5-yl)-3-fluorophenyl)-5-glycyloxymethyl oxazolidin-2-one hydrochloride], the MIC50 is 0.5 µg/mL in series [2] and 0.25 µg/mL in series [3].
